The text below walks through data of patent US8076285B2, “Lysobactin amides” (Aicuris GmbH & Co. KG, priority 2006, dated 2011).

≈ marks a conversion by molar mass, not a printed value. Like-named read-outs stand apart in the source and are kept apart here. *1 amine or outer side, *2 acyl side, *3 side chain or, on linkers, in order; H or OH if unused. Where a SMILES comes first, the peptide text is derived from it. Bridges are numbered along the chain shown (N, C = ends). [ ]: non-standard residue; d: D form. ξ: configuration not given here. Phe(βR-NH) = O=C([C@@H](N[*:1])[C@H](N[*:3])c1ccccc1)[*:2]; Leu(3R-OH) = CC(C)[C@@H](O)[C@H](N)C(=O)O; dAla(TMS) = C[Si](C)(C)C[C@@H](N)C(=O)O; d(tBuAla) = CC(C)(C)C[C@@H](N)C(=O)O; tBuAla = CC(C)(C)C[C@H](N)C(=O)O; 3Pal = N[C@@H](Cc1cccnc1)C(=O)O; aThr = C[C@H](O)[C@H](N)C(=O)O; ξIle = CC[C@H](C)C(N)C(=O)O; Nle = CCCC[C@H](N)C(=O)O; ξS = NC(CO)C(=O)O

The conditions of data set [1]: amide bond, 28-membered ring.
For data set [2], the system named is Enterococcus faecalis 27159. In kind it is cell-based. How it is done: (§1) Determination of the Minimum Inhibitory Concentration (MIC):
(§2) The MIC is determined in the liquid dilution test in accordance with the NCCLS guidelines. Overnight cultures of Staphylococcus aureus 133, Enterococcus faecalis 27159, E. faecium 4147 and Streptococcus pneumoniae G9a are incubated with the described test substances in a 1:2 dilution series. The MIC determination is carried out with a cell count of 10^5 microbes per ml in Isosensitest medium (Difco, Irvine/USA), with the exception of S. pneumoniae which is tested in BHI broth (Difco, Irvine/USA) with 10% bovine serum with a cell count of 10^6 microbes per ml. The cultures are incubated at 37° C. for 18-24 hours, S. pneumoniae in the presence of 10% CO2.
(§3) The MIC is defined as the lowest concentration of each substance at which no visible bacterial growth occurs any longer. The MIC values are reported in μg/ml.

In data set [3] the test system is Staphylococcus aureus 133. In kind it is cell-based. The procedure: as §1, §2, §3
Data set [4] has as its system Streptococcus pneumoniae G9a. In kind it is cell-based. The procedure: as §1, §2, §3
The conditions of data set [5]: amide bond; 28-membered ring.
[6] abbreviates: Isosensitest medium, 10^5 microbes per ml, 37° C., 18-24 hours.

`CC[C@H](C)[C@@H]1NC(=O)[C@@H](CCCN(C(=N)NC(=O)OCc2ccccc2)C(=O)OCc2ccccc2)NC(=O)[C@H](CC(C)C)NC(=O)[C@H]([C@H](O)C(C)C)NC(=O)[C@@H](NC(=O)[C@H](CC(C)(C)C)NC(=O)[C@@H](CC(C)(C)C)NC(=O)OCc2ccccc2)[C@@H](c2ccccc2)NC(=O)[C@H](CO)NC(=O)[C@H](CC(N)=O)NC(=O)CNC(=O)[C@H]([C@H](C)O)NC1=O` showed a ring closure, yield after HPLC in data set [1] (from Z-dAla(3-tBu)-Ala(3-tBu)-(3R)3-amino-Phe(free 3-NH2)-(3R)3-OH-Leu-Leu-dArg(Z)2-Ile-aThr-Gly-Asn-Ser-OH, HATU/NMM, DMF, 1.1 mM, 25.0 °C) of 90.1%. `CC[C@H](C)[C@@H]1NC(=O)[C@@H](CCCNC(=N)N)NC(=O)[C@H](CC(C)C)NC(=O)[C@H]([C@H](O)C(C)C)NC(=O)[C@@H](NC(=O)[C@H](CC(C)(C)C)NC(=O)[C@@H](CC(C)(C)C)NC(=O)OCc2ccccc2)[C@@H](c2ccccc2)NC(=O)[C@H](CO)NC(=O)[C@H](CC(N)=O)NC(=O)CNC(=O)[C@H]([C@H](C)O)NC1=O` yielded a ring closure, yield after HPLC in data set [1] (from Z-dAla(3-tBu)-Ala(3-tBu)-(3R)3-amino-Phe(free 3-NH2)-(3R)3-OH-Leu-Leu-dArg-Ile-aThr-Gly-Asn-Ser-OH, HATU/NMM, DMF, 1.14 mM, 4.0 °C) of 80%. In data set [1] (from Z-Phe((3R)-3-NH2)-Leu((3R)-3-OH)-Leu-dArg-Ile-aThr-Gly-Ala(3-pyridyl)-Ser-OH, HATU/NMM, DMF, 0.0 °C), `CC[C@H](C)[C@@H]1NC(=O)[C@@H](CCCNC(=N)N)NC(=O)[C@H](CC(C)C)NC(=O)[C@H]([C@H](O)C(C)C)NC(=O)[C@@H](NC(=O)OCc2ccccc2)[C@@H](c2ccccc2)NC(=O)[C@H](CO)NC(=O)[C@H](Cc2cccnc2)NC(=O)CNC(=O)[C@H]([C@H](C)O)NC1=O` had a ring closure, yield after HPLC of 51%. Take `CCCC[C@@H]1NC(=O)[C@H]([C@H](O)C(C)C)NC(=O)[C@@H](NC(=O)[C@H](Cc2cccnc2)NC(=O)[C@H](N)C[Si](C)(C)C)[C@@H](c2ccccc2)NC(=O)C(CO)NC(=O)[C@H](C)NC(=O)CNC(=O)[C@H]([C@H](C)O)NC(=O)[C@H]([C@@H](C)CC)NC(=O)[C@@H](CCCNC(=N)N)NC1=O` (stereo partly drawn) [Example 41, [3-Trimethylsilyl-D-alanyl]-[3-(3-pyridyl)-L-alanyl]-[(3R)-3-amino-L-phenylalanyl]-[(3R)-3-hydroxy-L-leucyl]-L-norleucyl-D-arginyl-L-isoleucyl-L-allothreonyl-glycyl-L-alanyl-L-serine C^1.11-N^3.3-lactam tristrifluoroacetate] (H-[dAla(TMS)][3Pal][Phe(βR-NH)][Leu(3R-OH)][Nle][dR]I[aThr]GA[ξS]; lactam 3-C): the “MIC E. faecalis ICB 27159” value in data set [2] (setting [6]) came to 2 µg/mL (≈ 1.56 µM). Also, in data set [3] (setting [6]), the “MIC S. aureus 133” value was found to be 0.25 µg/mL (≈ 0.195 µM). Further, the “MIC S. pneumoniae G9a” value in data set [4] (BHI broth with 10% bovine serum, 10^6 microbes per ml, 37° C., 18-24 hours, 10% CO2) is 0.25 µg/mL (≈ 0.195 µM). As for `CC[C@H](C)[C@@H]1NC(=O)[C@@H](CCCNC(=O)OCc2ccccc2)NC(=O)[C@H](CC(C)C)NC(=O)[C@H]([C@H](O)C(C)C)NC(=O)[C@@H](NC(=O)[C@H](CC(C)(C)C)NC(=O)[C@@H](CC(C)(C)C)NC(=O)OCc2ccccc2)[C@@H](c2ccccc2)NC(=O)[C@H](CO)NC(=O)[C@H](CC(N)=O)NC(=O)CNC(=O)[C@H]([C@H](C)O)NC1=O`, the ring closure, yield after HPLC in data set [1] (from Z-dAla(3-tBu)-Ala(3-tBu)-(3R)3-amino-Phe(free 3-NH2)-(3R)3-OH-Leu-Leu-dOrn(Z)-Ile-aThr-Gly-Asn-Ser-OH, HATU/NMM, DMF, 4.0 °C) was 91.3%. As for `CC[C@H](C)C1NC(=O)[C@H]([C@H](O)C(C)C)NC(=O)[C@@H](NC(=O)[C@H](CC(C)(C)C)NC(=O)[C@H](N)CC(C)(C)C)[C@@H](c2ccccc2)NC(=O)C(CO)NC(=O)[C@H](CO)NC(=O)CNC(=O)[C@H]([C@H](C)O)NC(=O)[C@H]([C@@H](C)CC)NC(=O)[C@@H](CCCNC(=N)N)NC1=O` (stereo partly drawn) [Example 35, [3-tert-Butyl-D-alanyl]-[3-tert-butyl-L-alanyl]-[(3R)-3-amino-L-phenylalanyl]-[(3R)-3-hydroxy-L-leucyl]-L-isoleucyl-D-arginyl-L-isoleucyl-L-allothreonyl-glycyl-L-seryl-L-serine C^1.11-N^3.3-lactam bistrifluoroacetate] (H-[d(tBuAla)][tBuAla][Phe(βR-NH)][Leu(3R-OH)][ξIle][dR]I[aThr]GS[ξS]; lactam 3-C), the “MIC E. faecalis ICB 27159” value in data set [2] (27159) turned out to be 1 µg/mL (≈ 0.793 µM). Also, the “MIC S. aureus 133” value in data set [3] (133) was 0.25 µg/mL (≈ 0.198 µM). Also, the “MIC S. pneumoniae G9a” value in data set [4] (G9a) is 0.5 µg/mL (≈ 0.397 µM). `CC[C@H](C)[C@@H]1NC(=O)[C@@H](CCCNC(=N)N)NC(=O)[C@H](CC(C)C)NC(=O)[C@H]([C@H](O)C(C)C)NC(=O)[C@@H](NC(=O)OCc2ccccc2)[C@@H](c2ccc(N(C)C)cc2)NC(=O)[C@H](CO)NC(=O)[C@H]([C@H](O)C(N)=O)NC(=O)CNC(=O)[C@H]([C@H](C)O)NC1=O` displayed a ring closure, yield after HPLC in data set [1] (from H-[N3-amine free, N2-Cbz-(3R)-3-amino-Phe(4-NMe2)]-[(3R)-3-OH-Leu]-Leu-dArg-Ile-aThr-Gly-[(3S)-3-OH-Asn]-Ser-OH, HATU/NMM, DMF, 9.3 mM) of 52%.

For the compound `CC[C@H](C)[C@@H]1NC(=O)[C@@H](CCCNC(=N)N)NC(=O)[C@H](CC(C)C)NC(=O)[C@H]([C@H](O)C(C)C)NC(=O)[C@@H](NC(=O)OCc2ccccc2)[C@@H](c2ccccc2)NC(=O)[C@H](CO)NC(=O)[C@H]([C@H](O)C(N)=O)NC(=O)CNC(=O)[C@H]([C@H](C)O)NC1=O`, in data set [1] (from Z-(3R)-3-amino-Phe-(3R)-3-hydroxy-Leu-Leu-dArg-Ile-alloThr-Gly-(3S)-3-hydroxy-Asn-Ser-OH, HATU/NMM, DMF, 1.27 mM, 0.0 °C), the ring closure, yield after HPLC came to 78.3%. The compound `CC[C@H](C)[C@@H]1NC(=O)[C@@H](CCCNC(=N)N)NC(=O)[C@H](CC(C)C)NC(=O)[C@H]([C@H](O)C(C)C)NC(=O)[C@@H](NC(=O)OCc2ccccc2)[C@@H](c2ccccc2)NC(=O)[C@H](CO)NC(=O)[C@H]([C@@H](C)O)NC(=O)CNC(=O)[C@H]([C@H](C)O)NC1=O` returned a ring closure, yield after HPLC in data set [1] (from Z-Phe((3R)-3-NH2)-Leu((3R)-3-OH)-Leu-dArg-Ile-aThr-Gly-Thr-Ser-OH?, HATU/NMM, DMF, 0.0 °C) of 65%. `CC[C@H](C)[C@@H]1NC(=O)[C@@H](CCCNC(=N)N)NC(=O)[C@H](CC(C)C)NC(=O)[C@H]([C@H](O)C(C)C)NC(=O)[C@@H](NC(=O)[C@H](CC(C)C)NC(=O)[C@@H](CC(C)C)NC(=O)OCc2ccccc2)[C@@H](c2ccccc2)NC(=O)[C@H](CO)NC(=O)[C@H](CC(N)=O)NC(=O)CNC(=O)[C@H]([C@@H](C)O)NC1=O` displayed a ring closure, yield after HPLC in data set [1] (from Z-dLeu-Leu-(3R)3-amino-Phe(free 3-NH2)-(3R)3-OH-Leu-Leu-dArg-Ile-Thr-Gly-Asn-Ser-OH, HATU/NMM, DMF, 25.0 °C) of 88.3%. As to `CC[C@H](C)[C@@H]1NC(=O)[C@@H](CCCNC(=N)N)NC(=O)[C@H](CC(C)C)NC(=O)[C@H]([C@H](O)C(C)C)NC(=O)[C@@H](NC(=O)OCc2ccccc2)[C@@H](c2ccccc2)NC(=O)[C@H](CO)NC(=O)[C@H](Cc2ccccc2)NC(=O)CNC(=O)[C@H]([C@H](C)O)NC1=O`, in data set [1] (from Z-Phe((3R)-3-NH2)-Leu((3R)-3-OH)-Leu-dArg-Ile-aThr-Gly-Phe-Ser-OH?, HATU/NMM, DMF, 0.0 °C), the ring closure, yield after HPLC amounted to 96%. “N^2.1-(Benzyloxycarbonyl)-[(3R)-3-amino-L-alanyl)]-[(3R)-3-hydroxy-L-leucyl]-L-leucyl-D-arginyl-L-isoleucyl-L-allothreonyl-glycyl-[(3S)-3-hydroxy-L-asparaginyl]-L-serine C^1.9-N^3.1-lactam hydrochloride” had a ring closure, yield after HPLC in data set [1] (Et3N (Pfp ester), CHCl3, 0.11 mM, 3 steps) of 15.9%. In data set [5], “[(3R)-N^2-(Benzyloxycarbonyl)-3-amino-L-phenylalanyl]-[(3R)-3-hydroxy-L-leucyl]-L-leucyl-D-arginyl-L-isoleucyl-L-allothreonyl-glycyl-[(2S)-2-amino-3-(9H-fluoren-9-ylmethoxycarbonyl)aminobutyryl]-L-serine C^1.9-N^3.1-lactam trifluoroacetate” showed a ring closure, isolated yield of 67%. As to “[(3R)-N^2-(Benzyloxycarbonyl)-3-amino-L-phenylalanyl]-[(3R)-3-hydroxy-L-leucyl]-L-norvalyl-D-arginyl-L-isoleucyl-L-allothreonyl-glycyl-L-alanyl-L-serine C^1.9-N^3.1-lactam trifluoroacetate”, the ring closure, isolated yield in data set [5] is 100%. “[(3R)-N^2-(Benzyloxycarbonyl)-3-amino-L-phenylalanyl]-[(3R)-3-hydroxy-L-leucyl]-(3-trimethylsilyl-L-alanyl)-D-arginyl-L-isoleucyl-L-allothreonyl-glycyl-L-seryl-L-serine C^1.9-N^3.1-lactam trifluoroacetate” gave a ring closure, isolated yield in data set [5] of 98%. The compound `CC[C@H](C)[C@@H]1NC(=O)[C@@H](CCCNC(=N)N)NC(=O)[C@H](CC(C)C)NC(=O)[C@H]([C@H](O)C(C)C)NC(=O)[C@@H](NC(=O)OCc2ccccc2)[C@@H](c2ccccc2)NC(=O)[C@H](CO)NC(=O)[C@H](CO)NC(=O)CNC(=O)[C@H]([C@H](C)O)NC1=O` gave a ring closure, yield after HPLC in data set [1] (from Z-Phe((3R)-3-NH2)-Leu((3R)-3-OH)-Leu-dArg-Ile-aThr-Gly-Ser-Ser-OH, HATU/NMM, DMF, 19.4 mM, 0.0 °C) of 43%.
